Where two headings read alike, the source gives them in different places.
What was measured:
[1] = molecular target: T1, Aβ1–42 fibrils (Homo sapiens, UniProt P05067); assay: Disaggregation of Cu2+-induced Aβ1–42 aggregation; format: biochemical
[2] = molecular target: T2, Aβ1–42 (Homo sapiens, UniProt P05067); assay: Inhibition of self-induced Aβ1–42 aggregation; format: biochemical; conditions: ThT assay; for inhibition at 25 µM: read-out: Inhibition of Aβ1–42 aggregation (%) Self-induced, 25 μM
[3] = molecular target: T2, Aβ1–42; assay: Inhibition of Cu2+-induced Aβ1–42 aggregation; format: biochemical; conditions: read-out: Inhibition of Aβ1–42 aggregation (%) Cu^2+-induced
[4] = molecular target: eeAChE (Electrophorus electricus, UniProt O42275); assay: Ellman's method, electric eel AChE; format: biochemical
[5] = molecular target: ratBuChE (Rattus norvegicus, UniProt Q9JKC1); assay: Ellman's method, BuChE from rat serum; format: biochemical
[6] = Oxygen Radicals Absorbance Capacity by Fluorescence; conditions: for ORAC: Trolox as reference; for ORAC-FL value: Trolox equivalents
[7] = molecular target: T3, ratAChE (Rattus norvegicus, UniProt P37136); assay: Ellman's method, AChE from rat cortex homogenate; format: biochemical; conditions: for SI = Selectivity index = IC50 (BuChE)/IC50 (AChE): ratBuChE over rat AChE
T3 sequence (P37136 32-614): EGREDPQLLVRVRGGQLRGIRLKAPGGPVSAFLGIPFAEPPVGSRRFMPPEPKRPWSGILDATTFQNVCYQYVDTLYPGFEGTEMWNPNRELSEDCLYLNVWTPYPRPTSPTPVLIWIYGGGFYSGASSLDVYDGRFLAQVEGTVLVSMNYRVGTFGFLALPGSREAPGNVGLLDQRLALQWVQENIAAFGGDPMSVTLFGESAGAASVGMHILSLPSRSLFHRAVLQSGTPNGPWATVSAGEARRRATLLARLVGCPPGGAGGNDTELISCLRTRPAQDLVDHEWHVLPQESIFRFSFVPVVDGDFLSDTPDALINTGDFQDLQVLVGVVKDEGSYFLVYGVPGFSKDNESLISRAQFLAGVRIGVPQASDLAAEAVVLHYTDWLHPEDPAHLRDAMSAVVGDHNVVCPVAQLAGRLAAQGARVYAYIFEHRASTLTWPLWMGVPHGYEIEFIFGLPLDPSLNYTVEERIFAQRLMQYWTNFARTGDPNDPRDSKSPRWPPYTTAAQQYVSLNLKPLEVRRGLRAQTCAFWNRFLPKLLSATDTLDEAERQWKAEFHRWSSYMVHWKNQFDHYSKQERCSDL

[8] = molecular target: T4, huMAO-A (Homo sapiens, UniProt P21397); assay: huMAO-A inhibition, fluorescence method; format: biochemical; conditions: for inhibition at 10 µM: read-out: MAO-A percent inhibition rate
T4 sequence (P21397 1-527): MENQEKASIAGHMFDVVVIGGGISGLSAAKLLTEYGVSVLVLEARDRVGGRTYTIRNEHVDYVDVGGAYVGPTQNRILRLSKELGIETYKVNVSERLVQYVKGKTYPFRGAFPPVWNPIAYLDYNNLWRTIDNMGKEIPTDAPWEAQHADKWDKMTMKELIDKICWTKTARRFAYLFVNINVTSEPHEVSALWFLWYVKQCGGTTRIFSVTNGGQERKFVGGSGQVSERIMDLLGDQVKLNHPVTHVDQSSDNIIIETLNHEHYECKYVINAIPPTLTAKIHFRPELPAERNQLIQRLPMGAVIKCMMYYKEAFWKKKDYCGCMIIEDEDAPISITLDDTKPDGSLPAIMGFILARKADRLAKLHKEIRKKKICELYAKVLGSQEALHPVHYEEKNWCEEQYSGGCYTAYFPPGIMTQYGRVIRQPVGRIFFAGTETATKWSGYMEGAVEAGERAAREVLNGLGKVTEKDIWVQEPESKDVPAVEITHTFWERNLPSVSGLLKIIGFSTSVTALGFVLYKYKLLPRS

[9] = molecular target: T5, huMAO-B (Homo sapiens, UniProt P27338); assay: biochemical; conditions: for inhibition at 10 µM: read-out: MAO-B percent inhibition rate
T5 sequence (P27338 1-520): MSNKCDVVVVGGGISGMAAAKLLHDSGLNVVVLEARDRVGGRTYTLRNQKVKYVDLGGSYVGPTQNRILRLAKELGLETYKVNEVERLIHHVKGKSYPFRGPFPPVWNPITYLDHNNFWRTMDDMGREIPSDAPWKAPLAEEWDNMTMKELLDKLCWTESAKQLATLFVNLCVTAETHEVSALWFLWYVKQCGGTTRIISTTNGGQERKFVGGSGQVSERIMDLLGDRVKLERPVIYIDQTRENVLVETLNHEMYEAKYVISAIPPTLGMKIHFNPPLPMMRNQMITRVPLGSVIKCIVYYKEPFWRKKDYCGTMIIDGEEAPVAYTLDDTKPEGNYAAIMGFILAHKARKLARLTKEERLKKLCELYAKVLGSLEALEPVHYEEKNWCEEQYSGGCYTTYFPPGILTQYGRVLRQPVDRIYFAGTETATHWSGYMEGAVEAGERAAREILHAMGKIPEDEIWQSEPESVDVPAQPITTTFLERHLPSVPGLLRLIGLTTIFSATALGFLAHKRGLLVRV

[10] = molecular target: T1, Aβ1–42 fibrils; assay: Disaggregation of self-induced Aβ1–42 aggregation; format: biochemical; conditions: 25 μM; ThT assay

eeAChE, sequence (O42275 24-633): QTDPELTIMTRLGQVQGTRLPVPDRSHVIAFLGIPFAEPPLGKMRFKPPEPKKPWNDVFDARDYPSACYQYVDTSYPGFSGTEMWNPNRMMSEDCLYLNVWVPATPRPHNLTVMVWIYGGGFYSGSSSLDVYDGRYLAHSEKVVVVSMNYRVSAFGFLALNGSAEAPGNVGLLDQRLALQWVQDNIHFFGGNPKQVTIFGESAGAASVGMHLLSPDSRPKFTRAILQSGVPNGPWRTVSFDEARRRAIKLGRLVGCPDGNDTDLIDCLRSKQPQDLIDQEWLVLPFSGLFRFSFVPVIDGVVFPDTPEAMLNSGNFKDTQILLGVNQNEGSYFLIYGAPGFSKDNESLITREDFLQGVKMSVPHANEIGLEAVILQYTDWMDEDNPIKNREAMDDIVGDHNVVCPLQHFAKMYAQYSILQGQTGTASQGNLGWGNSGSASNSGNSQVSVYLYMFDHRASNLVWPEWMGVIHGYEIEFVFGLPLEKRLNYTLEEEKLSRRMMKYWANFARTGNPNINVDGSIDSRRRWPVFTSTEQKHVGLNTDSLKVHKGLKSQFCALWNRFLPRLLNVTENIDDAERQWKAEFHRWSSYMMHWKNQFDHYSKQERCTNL
ratBuChE, sequence (Q9JKC1 24-597): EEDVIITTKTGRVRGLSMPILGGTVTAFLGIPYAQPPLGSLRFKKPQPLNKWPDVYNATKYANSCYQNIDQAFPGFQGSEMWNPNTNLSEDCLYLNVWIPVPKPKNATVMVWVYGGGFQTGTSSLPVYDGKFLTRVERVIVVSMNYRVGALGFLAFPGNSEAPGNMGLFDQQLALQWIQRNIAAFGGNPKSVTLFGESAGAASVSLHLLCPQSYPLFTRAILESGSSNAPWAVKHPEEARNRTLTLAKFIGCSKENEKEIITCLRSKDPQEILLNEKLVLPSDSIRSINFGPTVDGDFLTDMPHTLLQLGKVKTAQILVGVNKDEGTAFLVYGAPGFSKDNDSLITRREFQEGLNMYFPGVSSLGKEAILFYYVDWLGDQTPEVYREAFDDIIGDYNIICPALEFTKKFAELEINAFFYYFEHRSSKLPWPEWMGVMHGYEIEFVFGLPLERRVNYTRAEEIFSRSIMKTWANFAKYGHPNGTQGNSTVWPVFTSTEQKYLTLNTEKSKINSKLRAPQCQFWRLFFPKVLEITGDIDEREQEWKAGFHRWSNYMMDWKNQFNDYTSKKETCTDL
T1 sequence (P05067 672-713): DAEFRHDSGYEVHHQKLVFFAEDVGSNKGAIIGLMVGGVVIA
T2 sequence (P05067 672-713): as above

Structure (SMILES)	Disaggregation of Aβ1–42 aggregation (%) Cu^2+-induced [1] [%]	inhibition at 25 µM [2] [%]	inhibition at 25 µM [3] [%]	IC50 [4] [µM]	IC50 [5] [µM]	ORAC [6]	IC50 [7] [µM]	SI = Selectivity index = IC50 (BuChE)/IC50 (AChE) [7]	inhibition at 10 µM [8] [%]	Disaggregation of Aβ1–42 aggregation (%) Cu^2+-induced ([1]; 25 μM, ThT assay) [%]	IC50 [9] [µM]	Disaggregation of Aβ1–42 aggregation (%) Self-induced [10] [%]	IC50 [8] [µM]	SI = selectivity index = IC50 (hMAO-A)/IC50 (hMAO-B) [9]	Inhibition of Aβ1–42 aggregation (%) Self-induced ([2]; 25 μM)	inhibition at 10 µM [9] [%]	ORAC-FL value [6] [eq]
COc1cc(/C=C/C(=O)CC(=O)/C=C/c2ccc(O)c(OC)c2)ccc1O [Curcumin, reference compound]	56.5 ± 0.21	47.3 ± 0.01	76.5 ± 0.02	–	–	–	–	–	–	–	–	–	–	–	–	–	–
CCN(CCCCOc1ccc(/C=C/C(=O)c2c(O)cc(OC)c(O)c2OC)cc1)Cc1ccccc1OC [Compound 17d, (E)-1-(3,6-dihydroxy-2,4-dimethoxyphenyl)-3-(4-(4-(ethyl(2-methoxybenzyl)amino)butoxy)phenyl)prop-2-en-1-one]	–	73.8 ± 0.01	91.7 ± 0.02	3.68 ± 0.02	406 ± 15.2	3.1 ± 0.01 μM of Trolox equivalent/μM of compounds	0.58 ± 0.01	700	16.7	79.8 ± 0.03	15.1 ± 0.16	45.7 ± 0.16	–	–	–	–	–
COc1ccccc1CN(C)CCCCCCOc1ccc(/C=C/C(=O)c2c(O)cc(OC)c(OC)c2OC)cc1 [Compound 9e, (E)-1-(6-hydroxy-2,3,4-trimethoxyphenyl)-3-(4-(6-((2-methoxybenzyl)(methyl)amino)hexyloxy)phenyl)prop-2-en-1-one]	–	65.3 ± 0.02	76.2 ± 0.04	1 ± 0.03	> 500	0.99 ± 0.02 μM of Trolox equivalent/μM of compounds	1.68 ± 0.01	>297.6	–	77.0 ± 0.57	2.5 ± 0.01	58.2 ± 0.01	37.8 ± 0.57	15.1	–	–	–
COc1cc2c(cc1OC)C(=O)C(CC1CCN(Cc3ccccc3)CC1)C2 (centres unmarked) [Donepezil, reference compound]	–	< 5	–	–	–	–	–	–	–	–	–	–	–	–	n.a.^g (no active, meaning inhibition rate was <5.0% at 25 μM)	–	–
COc1ccccc1CN(C)CCCCCCOc1ccc(/C=C/C(=O)c2c(O)cc(OC)c(O)c2OC)cc1 [Compound 17e, (E)-1-(3,6-dihydroxy-2,4-dimethoxyphenyl)-3-(4-((6-((2-methoxybenzyl)(methyl)amino)hexyl)oxy)phenyl)prop-2-en-1-one]	–	65.7 ± 0.03	96.2 ± 0.02	2.16 ± 0.01	> 500	3.4 ± 0.02 μM of Trolox equivalent/μM of compounds	1.4 ± 0.02	>357.1	17.9	83.7 ± 0.03	12.8 ± 0.31	74.8 ± 0.31	–	–	–	–	–
CCN(CCCOc1ccc(/C=C/C(=O)c2c(O)cc(OC)c(OC)c2OC)cc1)Cc1ccccc1OC [Compound 9b, (E)-3-(4-(3-(ethyl(2-methoxybenzyl)amino)propoxy)phenyl)-1-(6-hydroxy-2,3,4-trimethoxyphenyl)prop-2-en-1-one]	–	63.4 ± 0.03	71.6 ± 0.01	1.62 ± 0.01	> 500	0.93 ± 0.01 μM of Trolox equivalent/μM of compounds	0.67 ± 0.01	>746.3	–	55.1 ± 0.22	8.1 ± 0.03	22.2 ± 0.03	19.8 ± 0.22	2.4	–	–	–
COc1ccccc1CN(C)CCCCOc1ccc(/C=C/C(=O)c2c(O)cc(OC)c(O)c2OC)cc1 [Compound 17c, (E)-1-(3,6-dihydroxy-2,4-dimethoxyphenyl)-3-(4-(4-((2-methoxybenzyl)(methyl)amino)butoxy)phenyl)prop-2-en-1-one]	–	68.4 ± 0.02	92.5 ± 0.03	3.74 ± 0.03	> 500	2.8 ± 0.01 μM of Trolox equivalent/μM of compounds	1.63 ± 0.02	>306.7	–	79.1 ± 0.15	–	75.9 ± 0.03	18.3 ± 0.15	–	–	11	–
COc1ccccc1CN(C)CCCCOc1ccc(/C=C/C(=O)c2c(O)cc(OC)c(OC)c2OC)cc1 [Compound 9c, (E)-1-(6-hydroxy-2,3,4-trimethoxyphenyl)-3-(4-(4-((2-methoxybenzyl)(methyl)amino)butoxy)phenyl)prop-2-en-1-one]	–	65 ± 0.01	74.1 ± 0.02	1.5 ± 0.02	> 500	0.97 ± 0.01 μM of Trolox equivalent/μM of compounds	1.77 ± 0.01	>282.5	–	66.6 ± 0.36	23.6 ± 0.12	45.7 ± 0.12	35.7 ± 0.36	1.5	–	–	–
CCN(CCCOc1ccc(/C=C/C(=O)c2c(O)cc(OC)c(O)c2OC)cc1)Cc1ccccc1OC [Compound 17b, (E)-1-(3,6-dihydroxy-2,4-dimethoxyphenyl)-3-(4-(3-(ethyl(2-methoxybenzyl)amino)propoxy)phenyl)prop-2-en-1-one]	–	82.1 ± 0.01	90.2 ± 0.02	3.16 ± 0.02	155 ± 5.8	2.9 ± 0.02 μM of Trolox equivalent/μM of compounds	0.73 ± 0.01	212.3	14.6	82.8 ± 0.03	–	60.2 ± 0.03	–	–	–	2.1	–
COc1cc(O)c(C(=O)/C=C/c2ccc(O)cc2)c(OC)c1OC [Compound 8, (E)-1-(6-hydroxy-2,3,4-trimethoxyphenyl)-3-(4-hydroxyphenyl)-2-propen-1-one]	–	23.1 ± 0.01	33.2 ± 0.01	> 500	> 500	5.4 ± 0.01 μM of Trolox equivalent/μM of compounds	> 500	–	22.9	–	–	–	–	–	–	–	5.4
COc1cc(O)c(C(=O)/C=C/c2ccc(O)cc2)c(OC)c1O [Compound 16, 3′,4,6′-Trihydroxy-2′,4′-dimethoxy-chalcone]	–	27.7 ± 0.02	38.1 ± 0.01	> 500	> 500	7.8 ± 0.01 μM of Trolox equivalent/μM of compounds	> 500	–	–	–	–	–	15.4 ± 0.16	–	–	–	7.8
